“And” between values parts separate entries of the source, which are not always exact repeats. Identical values can stand only once.
What was measured:
Type in all cases: in vivo
[1] = Myocardial imaging in a normal mongrel dog (Examples 4 and 5)
Protocol: For example, time dependent scintiscans of the chest region of a patient can be used. A computer interface, 16 crystal, Ohio Nuclear Spectrometer, is used for these scans and about 5 mCi of a given radiopharmaceutical is injected; blood samples are concurrently collected via an indwelling intravenous catheter in order to determine blood clearance rates. Time dependent tissue distribution studies are then conducted.

[2] = Time dependent myocardial and gallbladder distributions, computer analysis of scintigraphic data (Example 7, FIG. 3); details: dog
Protocol: FIG. 3 compares the gallbladder uptake and heart clearing of 99m-Tc (diars)2 Cl2^+ with that of 99m-Tc (diars)2 Br2^+.
(§1) The two title complexes were injected into a dog as described for the complex of Example 4. […] These differences are graphically illustrated in FIG. 3, wherein are plotted time dependent myocardial and gallbladder distributions obtained by computer analysis of scintigraphic data; data for a given complex are normalized, but comparative data between complexes are not.

[3] = Blood clearance curves (Example 7, FIG. 4); details: dog
Source text: It is clear that these two chemically similar agents are somewhat differentiated in the biological system.
Imaging of the myocardium or the hepatobiliary system can then be carried out (after waiting for appropriate periods of time to permit blood clearance of the radiopharmaceutical), by standard scanning techniques (Andres, J. T. et al., "Nuclear Medicine", Wiley & Sons, N.Y., 1977; "Basic Science Principles of Nuclear Medicine", Boyd, C. M. and Dalrymple, G. V., eds., Morby, St. Louis, 1974). For example, time dependent scintiscans of the chest region of a patient can be used. A computer interface, 16 crystal, Ohio Nuclear Spectrometer, is used for these scans and about 5 mCi of a given radiopharmaceutical is injected; blood samples are concurrently collected via an indwelling intravenous catheter in order to determine blood clearance rates. Time dependent tissue distribution studies are then conducted.
as §1

[4] = Tissue distribution studies using normal female Sprague-Dawley rats (Table 1)
[5] = Hepatobiliary imaging in a mongrel dog (Example 6, FIGS. 1 and 2)
Protocol: FIG. 2 is a schematic describing the photograph of FIG. 1. Both the photograph and accompanying schematic were taken after the complex had cleared the blood (5 minutes after injection), entered the liver and started clearing the liver and entering the gallbladder (10 minutes after injection).
The title complex was injected in the same vehicle as in Example 4 into a mongrel dog and images were obtained by positioning a camera directly over the chest of the dog.

For `C[P+]1(C)CC[P+](C)(C)[99Tc-3]12([Br])([Br])[P+](C)(C)CC[P+]2(C)C` [[99m-Tc(DMPE)2 Br2]^+, [99m-Tc(DMPE)2 Br2]Br], the “Myocardial uptake by the heart” value ([1]; same conditions as Example 4) was “Myocardial uptake by the heart of a normal mongrel dog was observed”.
For “trans-[Tc-99m(diars)2 Br2 ]Br [trans-[Tc(diars)2 Br2]Br]”, the “gallbladder handling of the two agents” value ([2]; FIG. 3) was “the gallbladder handles these two agents differently”, the “gallbladder uptake (rate)” value ([2]; intravenous) was “relatively slow” and the “time post intravenous injection at which the myocardium is readily visualized” value ([2]; intravenous) was 20 to 40 min. The “removal of the bulk of the activity” value [1] was “The bulk of the activity is taken out by the hepatobiliary system”, the “maximal myocardial uptake, time post injection” value ([1]; 50% ethanol/50% saline vehicle) was “about 20 minutes” and the “visualization of the myocardium” value ([1]; high sensitivity colimator) was “clearly visualizing the myocardium”. For the same compound, the “Blood clearance curves, comparison of the two complexes” value [3] was “biologically differentiated”, the Blood ([4]; 10 min post dose) was 0.38(3) % of the dose/g and the “Femur Muscle” value ([4]; 10 min post dose) was 0.22(6) % of the dose/g. The Kidney ([4]; 10 min post dose) was 3.1(6) % of the dose/g, the Liver ([4]; 10 min post dose) was 4.5(6) % of the dose/g and the Pancreas ([4]; 10 min post dose) was 1.0(3) % of the dose/g. For the same compound, the Heart ([4]; 10 min post dose, 10 min) was 2.3(5) % of the dose/g and 2.3 % of the dose/g, the Blood ([4]; 30 min post dose) was 0.27(3) % of the dose/g and the “Femur Muscle” value ([4]; 30 min post dose) was 0.29(3) % of the dose/g. For the same compound, the Heart ([4]; 30 min post dose) was 1.8(1) % of the dose/g, the Kidney ([4]; 30 min post dose) was 2.3(1) % of the dose/g and the Liver ([4]; 30 min post dose) was 2.9(6) % of the dose/g. For the same compound, the Pancreas ([4]; 30 min post dose) was 1.2(2) % of the dose/g, the Blood ([4]; 60 min post dose) was 0.21(1) % of the dose/g and the “Femur Muscle” value ([4]; 60 min post dose) was 0.26(5) % of the dose/g. For the same compound, the Heart ([4]; 60 min post dose) was 1.3(1) % of the dose/g, the Kidney ([4]; 60 min post dose) was 2.1(1) % of the dose/g and the Liver ([4]; 60 min post dose) was 2.7(3) % of the dose/g. For the same compound, the Pancreas ([4]; 60 min post dose) was 0.9(1) % of the dose/g, the Blood ([4]; 120 min post dose) was 0.18(3) % of the dose/g and the “Femur Muscle” value ([4]; 120 min post dose) was 0.28(2) % of the dose/g. The Heart ([4]; 120 min post dose) was 1.0(1) % of the dose/g, the Kidney ([4]; 120 min post dose) was 1.9(1) % of the dose/g and the Liver ([4]; 120 min post dose) was 2.1(2) % of the dose/g. The Pancreas ([4]; 120 min post dose) was 0.8(1) % of the dose/g, the “complex in the blood pool” value ([5]; 0 minutes, immediately after injection) was “most of the complex is in the blood pool which is predominantly in the heart chambers” and the “clearance from the blood” value ([5]; 1 minute after injection) was “begins to clear from the blood”. The gallbladder uptake ([5]; 1 minute after injection) was “The gallbladder does not yet contain any activity”, the liver uptake ([5]; 1 minute after injection) was “starts to enter the liver” and the “clearance from the blood” value ([5]; 5 minutes) was “The complex is all gone from the blood”. The gallbladder uptake ([5]; 5 minutes) was “A small amount has begun to enter the gallbladder”, the heart image ([5]; 5 minutes) was “the heart image has disappeared” and the liver uptake ([5]; 5 minutes) was “most of it is in the liver”. The gallbladder uptake ([5]; 10 minutes) was “The gallbladder has taken up most of the complex and appears brighter than even the liver”, the gallbladder uptake ([5]; 20 minutes) was “The gallbladder has taken up the bulk of the complex” and the liver activity ([5]; 20 minutes) was “the liver contains relatively little activity”. The gallbladder uptake ([5]; 30 minutes, FIGS. 1 and 2) was “the gallbladder has taken up the bulk of the complex”, the liver activity ([5]; 30 minutes, FIGS. 1 and 2) was “the liver contains relatively little activity” and the “time after injection at which the complex had cleared the blood” value ([5]; FIGS. 1 and 2) was 5 min. For the same compound, the “time after injection at which the complex started clearing the liver and entering the gallbladder” value ([5]; FIGS. 1 and 2) was 10 min.
